The values that follow come from US20020137929A1, “1 - (3-heterocyclylphenyl) isothiourea, -isourea, -guanidine and -amidine herbicidal agents” (Intellectual Property Department, BASF Aktiengesellschaft, priority 1998, published 2002).

Assay [1] concerns GLXMA (Soybean). Description: Postemergence herbicidal evaluation. In kind it is in vivo, Glycine max. The protocol:
In the tests, seedling plants are grown in jiffy flats for about two weeks. The test compounds are dispersed in 50/50 acetone/water mixtures containing 0.5% TWEEN®20, a polyoxyethylene sorbitan monolaurate surfactant of Atlas Chemical Industries, in sufficient quantities to provide the equivalent of about 0.0156 kg to 0.500 kg per hectare of active compound when applied to the plants through a spray nozzle operating at 40 psi for a predetermined time. After spraying, the plants are placed on greenhouse benches and are cared for in accordance with conventional greenhouse procedures. From four to five weeks after treatment, the seedling plants are examined and rated according to the rating system set forth below. Where more than one test is involved for a given compound, the data are averaged.
Plant species employed in these evaluations are reported by header abbreviation, common name and scientific name.
(§1) Results of herbicide evaluation are expressed on a rating scale (0-9). The scale is based upon a visual observation of plant stand, vigor, malformation, size, chlorosis and overall plant appearance as compared with a control.

The subject of assay [2] is GLXMA (Soybean). The assay can be described thus: Preemergence herbicidal evaluation. In kind it is in vivo, Glycine max. Particulars: rated 4-5 weeks after treatment.
Excerpt: as §1
The preemergence herbicidal activity of the test compounds of the present invention is exemplified by the following tests in which the seeds of a variety of monocotyledonous and dicotyledonous plants are separately mixed with potting soil and planted on top of approximately one inch of soil in separate pint cups. After planting, the cups are sprayed with the selected aqueous acetone solution containing test compound in sufficient quantity to provide the equivalent of about 0.0156 to 0.500 kg per hectare of test compound per cup. The treated cups are then placed on greenhouse benches, watered and cared for in accordance with conventional greenhouse procedures. From four to five weeks after treatment, the tests are terminated and each cup is examined and rated according to the rating system provided in Example 37.
The compounds evaluated are reported by compound number given in Example 37.

`CN1C(=O)C(F)SC1=Nc1cc(N2C(=O)C3=C(CCCC3)C2=O)c(F)cc1Cl` (stereo not shown) [Compound 5, N-{4-chloro-2-fluoro-5-[(5-fluoro-3-methyl-4-oxo-2-thiazolidinylidene)amino]phenyl}-1-cyclohexene-1,2-dicarboximide]: the GLXMA herbicidal rating in the assay on GLXMA (Soybean) [1] (rate 0.0157 kg/ha) was determined as 3.0; in the assay with GLXMA (Soybean) [1] (rate 0.0313 kg/ha) it was 3.0; with GLXMA (Soybean) [1] (rate 0.0625 kg/ha), 3.0; in the assay with GLXMA (Soybean) [1] (rate 0.1250 kg/ha) it was 4.0; in the assay with GLXMA (Soybean) [1] (rate 0.2500 kg/ha), 4.0; in the assay on GLXMA (Soybean) [1] (rate 0.5000 kg/ha), 4.5. Besides, the “GLXMA preemergence herbicidal rating” value was found to be 1.0 in the assay on GLXMA (Soybean) [2] (rate 0.0625 kg/ha), 1.0 in the assay on GLXMA (Soybean) [2] (rate 0.1250 kg/ha), 2.0 with GLXMA (Soybean) [2] (rate 0.2500 kg/ha) and 2.0 in the assay on GLXMA (Soybean) [2] (rate 0.5000 kg/ha).
